In BindingDB's records for patent US20230271964 (AstraZeneca, 2023):

Assays:
Adenosine receptor A1 = target: T1, Adenosine receptor A1 (Homo sapiens, UniProt P30542); experiment: Adenosine Receptor Binding Assay
T1 sequence (P30542 whole entry): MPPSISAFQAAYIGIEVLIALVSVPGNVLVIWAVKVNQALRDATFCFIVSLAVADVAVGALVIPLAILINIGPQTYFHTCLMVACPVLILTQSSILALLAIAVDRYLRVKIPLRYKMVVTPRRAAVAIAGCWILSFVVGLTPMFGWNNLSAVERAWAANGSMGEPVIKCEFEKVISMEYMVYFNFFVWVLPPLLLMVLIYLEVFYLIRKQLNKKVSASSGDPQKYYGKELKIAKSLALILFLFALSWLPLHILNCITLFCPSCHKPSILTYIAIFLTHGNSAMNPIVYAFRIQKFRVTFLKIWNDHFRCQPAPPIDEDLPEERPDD
Experimental: (§1) Inhibition binding assays were performed using 0.2 µg of membranes prepared from HEK293 cells infected with BacMam human adenosine A2A receptor or 1.4 µg of membranes prepared from HEK293 cells infected with BacMam human adenosine A1 receptor. Membranes were incubated in 50 mM Tris-HCl (HEK293-hA2A; pH 7.4) or 50 mM Tris-HCl, 100 mM NaCl, 10 mM MgCl2 (CHO-hA1; pH 7.4) in the presence of varying concentrations of test compound and 1 nM [3H]ZM241385 (HEK293-hA2A) or [3H]DPCPX (CHO-hA1) at 25° C. for 1 h. The assay was then terminated by rapid filtration onto GF/B grade Unifilter plates using a TomTec cell harvester, followed by 5 × 0.5 ml washes with ddH2O. […] Bound radioactivity was determined by liquid scintillation counting and inhibition curves were analysed using a four-parameter logistic equation. IC50 values were converted to Ki values with the Cheng-Prusoff equation using a KD value derived from saturation binding studies.

Adenosine receptor A2a = Adenosine receptor A2a (Homo sapiens, UniProt P29274); experiment: Adenosine Receptor Binding Assay
Chain of Adenosine receptor A2a (P29274 whole entry): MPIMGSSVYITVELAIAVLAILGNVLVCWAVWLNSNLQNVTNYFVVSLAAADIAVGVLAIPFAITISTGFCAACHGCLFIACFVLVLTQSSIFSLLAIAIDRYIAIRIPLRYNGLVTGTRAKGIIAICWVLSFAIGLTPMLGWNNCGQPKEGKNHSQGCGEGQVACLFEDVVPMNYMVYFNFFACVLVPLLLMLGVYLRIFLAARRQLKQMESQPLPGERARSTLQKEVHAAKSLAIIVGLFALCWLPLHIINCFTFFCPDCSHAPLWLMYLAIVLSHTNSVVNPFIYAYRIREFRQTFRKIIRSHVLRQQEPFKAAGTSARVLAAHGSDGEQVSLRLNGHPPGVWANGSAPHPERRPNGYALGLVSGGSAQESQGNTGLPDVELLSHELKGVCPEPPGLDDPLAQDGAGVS
Experimental: as §1

Cc1cc(-c2c(-c3ccccc3)nc(N)n3c(=O)n(Cc4ncc[nH]4)nc23)cc(C)n1 [US20230271964, Example 1-24]
Ki (Adenosine receptor A1): 0.0251 µM | Ki (Adenosine receptor A2a): 0.000631 µM
